In patent US20150305333A1, “USE OF GLUCOSAMINE AMIDES AS PLANT GROWTH AND YIELD ENHANCERS” (PIONEER HI-BRED INTERNATIONAL, INC., priority 2012, published 2015):

Experiments:
Format in all cases: in vivo
[1] = system: Spring barley (Hordeum vulgare); experiment: Spring barley field trial 2010: emergence, height, yield; conditions: for Barley Yield: entire plot harvested
Procedure: A field trial was conducted to evaluate the effects of NPG on plant emergence, height, and yield in Spring barley (Hordeum vulgare) planted near Thorndale, Ontario, Canada, in 2010. Seed treatments included an Untreated Control, three concentrations of NPG, and three concentrations of a natural LCO. The natural LCO was provided by Dr. Don Smith (McGill University, Montreal, Canada) and prepared as described in Example 2. Aqueous solutions of NPG and LCO were applied at 10^−6 M, 10^−7 M and 10^−8M to barley seed using a spray nozzle and left to soak on a plastic sheet for 20 minutes. The seeds were beginning to emerge when they were planted on June 8th in a loam composed of 41% sand, 39% silt and 20% clay and 4.5% organic matter.
Barley was planted at a rate of 100 kg seed/ha to a depth of 2.5 cm. Weeds were controlled using 770 mL/ha 8.79 wt % fenoxprop-P-ethyl, and a mixture of 33.33 wt % thifensulfuron methyl and 16.67 wt % tribenuron methyl at a rate of 30 g/ha. Disease was controlled with 23.6 wt % pyraclostrobin at a rate of 0.4 L/ha. All of the products are industry standards and representative of what is used in commercial production.
The trial was conducted using a randomized complete block design with a plot size of 2 m by 8 m with a 17.8 cm row spacing, 3.3 cm plant spacing and four replications
Yield was determined by harvesting the entire plot and transforming the data to kg/ha (Table 10). Yields are not corrected for differences in emergence rates. […] It is noteworthy, however, that yield benefits may be difficult to accurately determine with the small plots used in this study.

corn seeds = experiment: Petri dish seed germination assay, corn
Procedure: (§1) A series of Petri dish seed assays was conducted to evaluate the effects NPG on the seed germination rates of corn, soybean, and canola seeds subjected to cold stress, salt stress and non-stressed conditions (salt stress only for canola). Assays were performed with ten replications of ten seeds/plate (100 total seeds). NPG was applied to seeds at the specified concentrations prior to being placed in Petri plates. Seeds designated for Salt Stress Experiments 1 & 2 were placed in Petri dishes containing a 100 mM NaCl solution and incubated at 21° C.-22° C. in the dark. Cold stress Petri dishes were incubated at 15° C. in the dark. Untreated Controls were incubated at 21° C.-22° C. in the dark as were seeds utilized in the separately conducted non-stressed germination assays. Data was recorded as percent germination at designated times after plating. Statistical analyses were performed using one-way Anova and Kruskal-Wallis one-way analysis of variance on rank combined with Dunn's all pairwise multiple comparison procedure (α=0.05).

canola seeds = experiment: Petri dish seed germination assay, canola; conditions: Salt Stress (100 mM NaCl)
Procedure: as §1

CCCCCCC=CCCCCCCCC(=O)NC1C(OC)OC(CO)C(O)C1O [NPG, Methyl 2-deoxy-2-N-(hexadece-9,10-cis-eneoyl)-β-D-glucopyranoside]
Barley Emergence ([1]; 10^−6M seed treatment, 7 DAP): 85a %
Barley Plant Height ([1]; 10^−6M seed treatment, 7 DAP): 5.8a cm
Barley Emergence ([1]; 10^−6M seed treatment, 15 DAP): 88ab %
Barley Plant Height ([1]; 10^−6M seed treatment, 15 DAP): 12ab cm
Barley Emergence ([1]; 10^−6M seed treatment, 43 DAP): 19a %
Barley Plant Height ([1]; 10^−6M seed treatment, 43 DAP): 71a cm
Barley Yield ([1]; 10^−6M seed treatment): 3184 Kg/Hectare
Barley Emergence ([1]; 10^−7M seed treatment, 7 DAP): 86a %
Barley Plant Height ([1]; 10^−7M seed treatment, 7 DAP): 5.5ab cm
Barley Emergence ([1]; 10^−7M seed treatment, 15 DAP): 91a %
Barley Plant Height ([1]; 10^−7M seed treatment, 15 DAP): 14a cm
Barley Emergence ([1]; 10^−7M seed treatment, 43 DAP): 30a %
Barley Plant Height ([1]; 10^−7M seed treatment, 43 DAP): 71a cm
Barley Yield ([1]; 10^−7M seed treatment): 2504 Kg/Hectare
Barley Emergence ([1]; 10^−8M seed treatment, 7 DAP): 83a %
Barley Plant Height ([1]; 10^−8M seed treatment, 7 DAP): 5.6a cm
Barley Emergence ([1]; 10^−8M seed treatment, 15 DAP): 86ab %
Barley Plant Height ([1]; 10^−8M seed treatment, 15 DAP): 13a cm
Barley Emergence ([1]; 10^−8M seed treatment, 43 DAP): 25a %
Barley Plant Height ([1]; 10^−8M seed treatment, 43 DAP): 72a cm
Barley Yield ([1]; 10^−8M seed treatment): 3043 Kg/Hectare
Corn Seed Germination (corn seeds; Cold Stress (15° C.), 10^−6M, 48 HAP): 13ab %
Corn Seed Germination (corn seeds; Cold Stress (15° C.), 10^−6M, 56 HAP): 52a %
Corn Seed Germination (corn seeds; Cold Stress (15° C.), 10^−6M, 65 HAP): 100%
Corn Seed Germination (corn seeds; Cold Stress (15° C.), 10^−7M, 48 HAP): 20ab %
Corn Seed Germination (corn seeds; Cold Stress (15° C.), 10^−7M, 56 HAP): 52a %
Corn Seed Germination (corn seeds; Cold Stress (15° C.), 10^−7M, 65 HAP): 100%
Corn Seed Germination (corn seeds; Non-Stressed, 10^−6M, 28 HAP): 34a %
Corn Seed Germination (corn seeds; Non-Stressed, 10^−6M, 34 HAP): 80a %
Corn Seed Germination (corn seeds; Non-Stressed, 10^−6M, 44 HAP): 100a %
Corn Seed Germination (corn seeds; Salt Stress (100 mM NaCl) Experiment 2, 10^−6M, 32 HAP): 20b %
Corn Seed Germination (corn seeds; Salt Stress (100 mM NaCl) Experiment 2, 10^−6M, 42 HAP): 90a %
Corn Seed Germination (corn seeds; Salt Stress (100 mM NaCl) Experiment 2, 10^−7M, 32 HAP): 44a %
Corn Seed Germination (corn seeds; Salt Stress (100 mM NaCl) Experiment 2, 10^−7M, 42 HAP): 87a %
Canola Seed Germination (canola seeds; 10^−6M, 30 HAP): 14b %
Canola Seed Germination (canola seeds; 10^−6M, 39 HAP): 67.3ab %
Canola Seed Germination (canola seeds; 10^−6M, 48 HAP): 84a %
Canola Seed Germination (canola seeds; 10^−7M, 30 HAP): 22.7ab %
Canola Seed Germination (canola seeds; 10^−7M, 39 HAP): 80.7a %
Canola Seed Germination (canola seeds; 10^−7M, 48 HAP): 88.7a %
